Measurements from article PMC8161398, “Targeting Lactate Dehydrogenase A with Catechin Resensitizes SNU620/5FU Gastric Cancer Cells to 5-Fluorouracil” (International Journal of Molecular Sciences, 2021).

Experiments:
[1] = target: T1, lactate dehydrogenase A (LDHA) (Homo sapiens, UniProt P00338); assay: ITC; also purified LDHA activity assay by NADH fluorescence (IC50 =[…]); format: binding
T1 construct: purified recombinant LDHA

[2] = target: T2, lactate dehydrogenase B (LDHB) (Homo sapiens, UniProt P07195); assay: LDHB activity assay (NADH fluorescence), dose-dependent; format: biochemical
T2 construct: purified recombinant LDHB

[3] = target: T1, lactate dehydrogenase A (LDHA); assay: LDHA activity assay (NADH fluorescence), dose-dependent; format: biochemical

T2 sequence (P07195 2-334): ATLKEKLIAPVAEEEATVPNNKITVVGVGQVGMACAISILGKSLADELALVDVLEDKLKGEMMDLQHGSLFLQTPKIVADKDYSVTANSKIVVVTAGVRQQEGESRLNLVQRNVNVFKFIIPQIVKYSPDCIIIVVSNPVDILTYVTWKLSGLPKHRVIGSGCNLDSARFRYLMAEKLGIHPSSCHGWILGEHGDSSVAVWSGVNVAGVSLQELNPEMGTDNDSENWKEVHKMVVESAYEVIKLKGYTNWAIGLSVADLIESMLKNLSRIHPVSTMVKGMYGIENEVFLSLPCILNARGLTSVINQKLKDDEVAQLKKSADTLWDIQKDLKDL

Compound	Kd [1] [µM]	LDHB activity assay (NADH fluorescence), dose-dependent [2]	LDHA activity assay (NADH fluorescence), dose-dependent [3]
Oc1cc(O)c2c(c1)OC(c1ccc(O)c(O)c1)C(O)C2 (stereo not drawn) [CA, Catechin]	197	–	–
O=C(O[C@@H]1Cc2c(O)cc(O)cc2O[C@@H]1c1cc(O)c(O)c(O)c1)c1cc(O)c(O)c(O)c1 [EGCG, epigallocatechin-3-gallate]	–	exert inhibitory effects on both LDHA and LDHB activities	LDHA and LDHB activities were measured with EGCG, which is known to inhibit LDHA activity
